Data on 17 compounds can be found in ChEMBL document CHEMBL5137006, “Synthesis and Characterization of Transition-State Analogue Inhibitors against Human DNA Methyltransferase 1” (J Med Chem, 2022).

In test [1] the target is T1, DNA (cytosine-5)-methyltransferase 1 (Homo sapiens, UniProt P26358). In words: Inhibition of human recombinant full-length DNMT1 expressed in Sf9 cells assessed as inhibition of methylated dI-dC formation using poly dI-dC and [Me-3H]SAM as substrate incubated for 2 hrs by liquid scintillation counting analysis.
T1 sequence (P26358 whole entry, the tested form may be a part): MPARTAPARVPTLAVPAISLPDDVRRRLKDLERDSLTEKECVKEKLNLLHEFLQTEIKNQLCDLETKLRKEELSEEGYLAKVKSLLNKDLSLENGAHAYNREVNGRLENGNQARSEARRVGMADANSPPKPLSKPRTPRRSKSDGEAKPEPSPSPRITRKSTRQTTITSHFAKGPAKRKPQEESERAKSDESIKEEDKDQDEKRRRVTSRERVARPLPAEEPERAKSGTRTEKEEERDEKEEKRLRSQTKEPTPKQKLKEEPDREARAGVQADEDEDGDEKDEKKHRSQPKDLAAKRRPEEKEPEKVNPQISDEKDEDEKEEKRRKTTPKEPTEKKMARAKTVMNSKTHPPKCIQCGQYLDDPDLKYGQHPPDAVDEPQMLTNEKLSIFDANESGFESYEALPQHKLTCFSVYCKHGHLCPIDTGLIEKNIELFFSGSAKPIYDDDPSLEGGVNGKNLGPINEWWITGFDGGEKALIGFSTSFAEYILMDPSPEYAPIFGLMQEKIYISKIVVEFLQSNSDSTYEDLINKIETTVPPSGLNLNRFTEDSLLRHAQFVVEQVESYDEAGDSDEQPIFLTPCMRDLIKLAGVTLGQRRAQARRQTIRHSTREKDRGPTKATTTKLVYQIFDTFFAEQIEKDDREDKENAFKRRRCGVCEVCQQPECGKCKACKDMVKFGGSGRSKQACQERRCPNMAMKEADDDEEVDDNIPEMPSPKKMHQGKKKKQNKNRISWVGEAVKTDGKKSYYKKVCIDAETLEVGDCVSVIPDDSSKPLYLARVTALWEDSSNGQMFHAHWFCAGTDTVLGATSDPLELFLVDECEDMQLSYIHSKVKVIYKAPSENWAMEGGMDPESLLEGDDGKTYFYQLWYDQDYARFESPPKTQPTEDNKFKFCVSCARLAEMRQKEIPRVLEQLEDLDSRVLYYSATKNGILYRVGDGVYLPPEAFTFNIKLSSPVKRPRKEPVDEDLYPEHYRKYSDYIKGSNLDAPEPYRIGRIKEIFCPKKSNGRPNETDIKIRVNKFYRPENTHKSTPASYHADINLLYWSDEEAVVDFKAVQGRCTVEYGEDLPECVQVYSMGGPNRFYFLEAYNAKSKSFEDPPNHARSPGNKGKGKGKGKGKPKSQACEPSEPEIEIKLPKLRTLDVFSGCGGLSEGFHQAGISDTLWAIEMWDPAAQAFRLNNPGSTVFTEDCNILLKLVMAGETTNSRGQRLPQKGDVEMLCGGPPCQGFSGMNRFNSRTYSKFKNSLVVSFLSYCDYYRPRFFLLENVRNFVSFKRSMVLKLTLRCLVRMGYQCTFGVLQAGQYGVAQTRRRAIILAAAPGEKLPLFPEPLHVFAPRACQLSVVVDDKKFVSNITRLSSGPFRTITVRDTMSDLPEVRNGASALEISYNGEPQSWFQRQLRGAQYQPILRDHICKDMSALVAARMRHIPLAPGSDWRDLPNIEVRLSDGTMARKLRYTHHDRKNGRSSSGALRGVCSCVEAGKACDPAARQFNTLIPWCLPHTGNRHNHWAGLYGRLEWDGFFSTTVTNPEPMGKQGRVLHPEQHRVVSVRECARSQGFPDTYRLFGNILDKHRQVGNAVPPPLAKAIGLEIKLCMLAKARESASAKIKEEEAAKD
Test [2] has as its target T1, DNA (cytosine-5)-methyltransferase 1. In words: Inhibition of human C-terminal domain DNMT1 catalytic domain (351 to 1600 residues) expressed in Escherichia coli BL21-CodonPlus (DE3)-RIL cells assessed as inhibition of methylated dI-dC formation using poly dI-dC and 8 uM [Me-3H]SAM as substrate incubated for 2 hrs by liquid scintillation counting analysis.
The target is the same in test [3]. The test can be described thus: Inhibition of human C-terminal domain DNMT1 catalytic domain (351 to 1600 residues) expressed in Escherichia coli BL21-CodonPlus (DE3)-RIL cells assessed as inhibition of methylated dI-dC formation using 25 ug/ml poly dI-dC and [Me-3H]SAM as substrate incubated for 2 hrs by liquid scintillation counting analysis.
Test [4] has the same target. The test can be described thus: Inhibition of human C-terminal domain DNMT1 catalytic domain (351 to 1600 residues) expressed in Escherichia coli BL21-CodonPlus (DE3)-RIL cells assessed as inhibition of methylated dI-dC formation using 5 ug/ml poly dI-dC and [Me-3H]SAM as substrate incubated for 2 hrs by liquid scintillation counting analysis.
Test [5] has the same target. In words: Binding affinity to human C-terminal domain DNMT1 catalytic domain ([…] residues) expressed in Escherichia coli BL21-CodonPlus (DE3)-RIL cells by ultrafiltration binding assay.
For test [6] the target is unchanged. In words: Inhibition of human C-terminal domain DNMT1 catalytic domain (351 to 1600 residues) expressed in Escherichia coli BL21-CodonPlus (DE3)-RIL cells assessed as inhibition of methylated dI-dC formation using poly dI-dC and 6 uM [Me-3H]SAM as substrate incubated for 2 hrs by liquid scintillation counting analysis.
For test [7] the target is unchanged. In words: Inhibition of human C-terminal domain DNMT1 catalytic domain (351 to 1600 residues) expressed in Escherichia coli BL21-CodonPlus (DE3)-RIL cells assessed as inhibition of methylated dI-dC formation using 1 ug/ml poly dI-dC and [Me-3H]SAM as substrate incubated for 2 hrs by liquid scintillation counting analysis.
Test [8] has the same target. In words: Inhibition of human C-terminal domain DNMT1 catalytic domain (351 to 1600 residues) expressed in Escherichia coli BL21-CodonPlus (DE3)-RIL cells assessed as inhibition of methylated dI-dC formation using poly dI-dC and 1 uM [Me-3H]SAM as substrate incubated for 2 hrs by liquid scintillation counting analysis.
Test [9] has the same target. In words: Inhibition of human C-terminal domain DNMT1 catalytic domain (351 to 1600 residues) expressed in Escherichia coli BL21-CodonPlus (DE3)-RIL cells assessed as inhibition of methylated dI-dC formation using poly dI-dC and 12 uM [Me-3H]SAM as substrate incubated for 2 hrs by liquid scintillation counting analysis.
Test [10] shares this target. The test can be described thus: Inhibition of DNMT1 in human HT-29 cells assessed as reduction of 5-methylcytosine in cellular DNA at 100 uM incubated for 96 hrs by nLC-MS analysis. In kind it is cell-based.

The source made the active and inactive calls. The calls are words filed in the database; no cut-off is given here.

The IC50 is the concentration needed to halve the response being measured. With `Nc1nc(=O)n([C@H]2C[C@H](O)[C@@H](CO)O2)cc1CNC[C@H]1O[C@@H](n2cnc3c(N)ncnc32)[C@H](O)[C@@H]1O`, the IC50 in test [1] is 0.4 µM. For the compound `Nc1nc(=O)n([C@H]2C[C@H](O)[C@@H](CO)O2)cc1CNCCCC[C@H](N)C(=O)O`, the IC50 in [1] amounted to 2.7 µM. `Nc1nc(=O)n([C@H]2C[C@H](O)[C@@H](CO)O2)cc1CCCNC[C@H]1O[C@@H](n2cnc3c(N)ncnc32)[C@H](O)[C@@H]1O`: the IC50 in test [1] came to 10.3 µM. On to `Nc1nc(=O)n([C@H]2C[C@H](O)[C@@H](CO)O2)cc1CCSC[C@H]1O[C@@H](n2cnc3c(N)ncnc32)[C@H](O)[C@@H]1O`, for which, in [1], the half-maximal inhibitory concentration (IC50) was greater than 100 µM. A word on the Kd: it is a measure of binding affinity in units of concentration. Lower therefore signals tighter binding. For `Nc1nc(=O)n([C@H]2C[C@H](O)[C@@H](CO)O2)cc1CNCC(CC[C@H](N)C(=O)O)C[C@H]1O[C@@H](n2cnc3c(N)ncnc32)[C@H](O)[C@@H]1O` (stereo not given in full), the IC50 in test [2] is 6.7 µM; in [3], 5.4 µM; in test [4], 5.1 µM; in test [1], 1.2 µM; in test [6], 6.1 µM; in test [7], 4 µM. For the same compound, the IC50 in [8] is 3.5 µM; in test [9], 8.7 µM. Moreover, in test [5], the Kd was 7.3 µM. As to `Nc1nc(=O)n([C@H]2C[C@H](O)[C@@H](CO)O2)cc1CSCCC[C@H]1O[C@@H](n2cnc3c(N)ncnc32)[C@H](O)[C@@H]1O`, the IC50 in test [1] was determined as 0.9 µM.

Consider `Nc1nc(=O)n([C@H]2C[C@H](O)[C@@H](CO)O2)cc1CSCCCC[C@H](N)C(=O)O`, for which the IC50 in [1] was 1.1 µM. On the same count and under the same terms, the same measure for `Nc1nc(=O)n([C@H]2C[C@H](O)[C@@H](CO)O2)cc1CCN(CC[C@H](N)C(=O)O)C[C@H]1O[C@@H](n2cnc3c(N)ncnc32)[C@H](O)[C@@H]1O`: 10.3 µM; for `Nc1nc(=O)n([C@H]2C[C@H](O)[C@@H](CO)O2)cc1CN(CC[C@H](N)C(=O)O)C[C@H]1O[C@@H](n2cnc3c(N)ncnc32)[C@H](O)[C@@H]1O`: 8.5 µM; for `Nc1nc(=O)n([C@H]2C[C@H](O)[C@@H](CO)O2)cc1SCCN(CC[C@H](N)C(=O)O)C[C@H]1O[C@@H](n2cnc3c(N)ncnc32)[C@H](O)[C@@H]1O`: 3.6 µM.

With `Nc1nc(=O)n([C@H]2C[C@H](O)[C@@H](CO)O2)cc1CNCC[C@H](N)C(=O)O`, in [1], the half-inhibitory concentration (IC50) stood at 17.2 µM.

For the compound `Nc1ncn(C2C[C@H](O)[C@@H](CO)O2)c(=O)n1` (stereo not given in full), the inhibition result in test [10] is “Active”. Take `NC1=NC(=O)N([C@H]2C[C@H](O)[C@@H](CO)O2)CN1CCCCCN(CC[C@H](N)C(=O)O)C[C@H]1O[C@@H](n2cnc3c(N)ncnc32)[C@H](O)[C@@H]1O`: in test [1], the IC50 is 19.6 µM. `Nc1nc(=O)n([C@H]2C[C@H](O)[C@@H](CO)O2)cc1CCCN(CC[C@H](N)C(=O)O)C[C@H]1O[C@@H](n2cnc3c(N)ncnc32)[C@H](O)[C@@H]1O`: the IC50 in test [1] was 2.9 µM. `Nc1nc(=O)n([C@H]2C[C@H](O)[C@@H](CO)O2)cc1CSC[C@H]1O[C@@H](n2cnc3c(N)ncnc32)[C@H](O)[C@@H]1O`: the 50% inhibitory concentration (IC50) in test [1] is greater than 100 µM. Turning to `Nc1nc(=O)n([C@H]2C[C@H](O)[C@@H](CO)O2)cc1CCCSC[C@H]1O[C@@H](n2cnc3c(N)ncnc32)[C@H](O)[C@@H]1O`, the 50% inhibitory concentration (IC50) in test [1] is greater than 100 µM. On the same count and under the same terms, the same measure for `Nc1nc(=O)n([C@H]2C[C@H](O)[C@@H](CO)O2)cc1CSCC[C@H](N)C(=O)O`: 7.2 µM.
